Structures are written as SMILES.

One assay concerns the target human orexin-2 receptor (Homo sapiens (Human), UniProt O43614). In words: Intracellular calcium measurements (FLIPR), antagonism of orexin-A response. In kind it is cell-based. The conditions noted are these: CHO cells expressing human orexin-2 receptor, 3 nM orexin-A, geometric mean if determined several times, read-out: IC50 OX2. The method, then: (§1) Antagonistic activities on both orexin receptors have been measured for each example compound using the following procedure:
(§2) In Vitro Assay: Intracellular Calcium Measurements:
(§3) Chinese hamster ovary (CHO) cells expressing the human orexin-1 receptor and the human orexin-2 receptor, respectively, are grown in culture medium (Ham F-12 with L-Glutamine) containing 300 μg/mL G418, 100 U/mL penicillin, 100 μg/mL streptomycin and 10% heat inactivated fetal calf serum (FCS). The cells are seeded at 20,000 cells/well into 384-well black clear bottom sterile plates (Greiner). The seeded plates are incubated overnight at 37° C. in 5% CO2. Human orexin-A as an agonist is prepared as 1 mM stock solution in MeOH:water (1:1), diluted in HBSS containing 0.1% bovine serum albumin (BSA), NaHCO3: 0.375 g/L and 20 mM HEPES for use in the assay at a final concentration of 3 nM.
(§4) Antagonists are prepared as 10 mM stock solution in DMSO, then diluted in 384-well plates using DMSO followed by a transfer of the dilutions into in HBSS containing 0.1% bovine serum albumin (BSA), NaHCO3: 0.375 g/L and 20 mM HEPES. On the day of the assay, 50 μL of staining buffer (HBSS containing 1% FCS, 20 mM HEPES, NaHCO3: 0.375 g/L, 5 mM probenecid (Sigma) and 3 μM of the fluorescent calcium indicator fluo-4 AM (1 mM stock solution in DMSO, containing 10% pluronic) is added to each well. The 384-well cell-plates are incubated for 50 min at 37° C. in 5% CO2 followed by equilibration at rt for 30 min before measurement.
(§5) Within the Fluorescent Imaging Plate Reader (FLIPR Tetra, Molecular Devices), antagonists are added to the plate in a volume of 10 μL/well, incubated for 120 min and finally 10 μL/well of agonist is added. Fluorescence is measured for each well at 1 second intervals, and the height of each fluorescence peak is compared to the height of the fluorescence peak induced by 3 nM orexin-A with vehicle in place of antagonist. The IC50 value (the concentration of compound needed to inhibit 50% of the agonistic response) is determined and may be normalized using the obtained IC50 value of an on-plate reference compound. Optimized conditions were achieved by adjustment of pipetting speed and cell splitting regime. The calculated IC50 values may fluctuate depending on the daily cellular assay performance. Fluctuations of this kind are known to those skilled in the art. In the case where IC50 values have been determined several times for the same compound, the geometric mean has been given.
(Calcium assays in cells follow changes in intracellular calcium, usually with a dye or a luminescent sensor.)

The target of another assay is human orexin-1 receptor (Homo sapiens (Human), UniProt O43613). Described as above. In kind it is cell-based. The conditions noted are these: CHO cells expressing human orexin-1 receptor, 3 nM orexin-A, geometric mean if determined several times, read-out: IC50 OX1. As to the method: as §1, §2, §3, §4, §5
Sequence of human orexin-1 receptor (O43613 whole entry): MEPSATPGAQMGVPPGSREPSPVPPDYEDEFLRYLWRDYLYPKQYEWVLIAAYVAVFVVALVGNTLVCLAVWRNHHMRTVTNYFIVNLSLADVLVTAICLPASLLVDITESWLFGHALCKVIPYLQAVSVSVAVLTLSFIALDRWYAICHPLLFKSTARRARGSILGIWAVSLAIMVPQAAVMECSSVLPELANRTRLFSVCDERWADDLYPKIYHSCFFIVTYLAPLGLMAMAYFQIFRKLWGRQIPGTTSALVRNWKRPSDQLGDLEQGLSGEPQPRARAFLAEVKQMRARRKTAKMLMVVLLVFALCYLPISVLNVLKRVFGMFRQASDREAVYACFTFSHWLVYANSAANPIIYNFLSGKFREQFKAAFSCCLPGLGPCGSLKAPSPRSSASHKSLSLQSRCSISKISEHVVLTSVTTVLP

Sequence of human orexin-2 receptor (O43614 whole entry): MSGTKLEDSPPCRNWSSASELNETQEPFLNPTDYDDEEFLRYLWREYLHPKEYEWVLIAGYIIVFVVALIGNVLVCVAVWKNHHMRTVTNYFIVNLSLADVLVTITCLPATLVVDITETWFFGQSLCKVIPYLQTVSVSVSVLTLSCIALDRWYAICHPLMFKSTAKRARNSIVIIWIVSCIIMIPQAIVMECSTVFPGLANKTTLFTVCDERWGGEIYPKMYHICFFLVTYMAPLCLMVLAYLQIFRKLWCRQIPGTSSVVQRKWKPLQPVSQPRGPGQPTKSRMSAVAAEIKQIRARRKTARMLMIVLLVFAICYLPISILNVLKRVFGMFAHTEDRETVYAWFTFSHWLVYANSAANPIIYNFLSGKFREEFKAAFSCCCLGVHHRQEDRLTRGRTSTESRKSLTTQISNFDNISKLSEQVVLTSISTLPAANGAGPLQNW

The IC50 is the concentration that inhibits the measured activity by half. As to `COc1cc(C(=O)N2CC[C@H]2c2nc(-c3ccccc3OC(F)(F)F)no2)c(-n2nccn2)cc1F` [Example 23, (4-Fluoro-5-methoxy-2-[1,2,3]triazol-2-yl-phenyl)-{(S)-2-[3-(2-trifluoromethoxy-phenyl)-[1,2,4]oxadiazol-5-yl]-azetidin-1-yl}-methanone], the IC50 at human orexin-2 receptor was 39 nM; at human orexin-1 receptor, 1420 nM.

As for `COc1cc(C(=O)N2CC[C@H]2c2nc(-c3cccc(Cl)c3C)no2)c(-n2nccn2)cc1F` [Example 24, {(S)-2-[3-(3-Chloro-2-methyl-phenyl)-[1,2,4]oxadiazol-5-yl]-azetidin-1-yl}-(4-fluoro-5-methoxy-2-[1,2,3]triazol-2-yl-phenyl)-methanone], the results for the IC50 on human orexin-2 receptor and at human orexin-1 receptor were 25 nM and 963 nM, respectively.

In the case of `COc1cc(C(=O)N2CC[C@H]2c2nc(-c3cccc(F)c3C)no2)c(-n2nccn2)cc1F` [Example 25, (4-Fluoro-5-methoxy-2-[1,2,3]triazol-2-yl-phenyl)-{(S)-2-[3-(3-fluoro-2-methyl-phenyl)-[1,2,4]oxadiazol-5-yl]-azetidin-1-yl}-methanone], the IC50 on human orexin-2 receptor came to 27 nM; at human orexin-1 receptor, 1750 nM.

Turning to `COc1cc(C(=O)N2CC[C@H]2c2nc(-c3cccc(F)c3OC)no2)c(-n2nccn2)cc1F` [Example 26, {(S)-2-[3-(3-Fluoro-2-methoxy-phenyl)-[1,2,4]oxadiazol-5-yl]-azetidin-1-yl}-(4-fluoro-5-methoxy-2-[1,2,3]triazol-2-yl-phenyl)-methanone], the IC50 amounted to 26 nM at human orexin-2 receptor and 2080 nM on human orexin-1 receptor.

As to `COc1cc(C(=O)N2CC[C@H]2c2nc(-c3ccccc3OC(F)(F)F)no2)c(-n2nccn2)cc1C` [Example 27, (5-Methoxy-4-methyl-2-[1,2,3]triazol-2-yl-phenyl)-{(S)-2-[3-(2-trifluoromethoxy-phenyl)-[1,2,4]oxadiazol-5-yl]-azetidin-1-yl}-methanone], the values for the IC50 at human orexin-2 receptor and at human orexin-1 receptor were 6 nM and 220 nM, respectively.

Regarding `COc1cc(C(=O)N2CC[C@H]2c2nc(-c3cccc(Cl)c3C)no2)c(-n2nccn2)cc1C` [Example 28, {(S)-2-[3-(3-Chloro-2-methyl-phenyl)-[1,2,4]oxadiazol-5-yl]-azetidin-1-yl}-(5-methoxy-4-methyl-2-[1,2,3]triazol-2-yl-phenyl)-methanone], the IC50 at human orexin-2 receptor was 2 nM; at human orexin-1 receptor, 397 nM.

Regarding `COc1cc(C(=O)N2CC[C@H]2c2nc(-c3cccc(F)c3C)no2)c(-n2nccn2)cc1C` [Example 29, {(S)-2-[3-(3-Fluoro-2-methyl-phenyl)-[1,2,4]oxadiazol-5-yl]-azetidin-1-yl}-(5-methoxy-4-methyl-2-[1,2,3]triazol-2-yl-phenyl)-methanone], the IC50 came to 4 nM at human orexin-2 receptor and 671 nM on human orexin-1 receptor.

`CCOc1ncccc1-c1noc([C@@H]2CCN2C(=O)c2cc(C)ccc2-n2nccn2)n1` [Example 30, {(S)-2-[3-(2-Ethoxy-pyridin-3-yl)-[1,2,4]oxadiazol-5-yl]-azetidin-1-yl}-(5-methyl-2-[1,2,3]triazol-2-yl-phenyl)-methanone]: the IC50 was 10 nM on human orexin-2 receptor and 295 nM at human orexin-1 receptor.

For the compound `CCOc1ncccc1-c1noc([C@@H]2CCN2C(=O)c2cc(C)c(C)cc2-n2nccn2)n1` [Example 31, (4,5-Dimethyl-2-[1,2,3]triazol-2-yl-phenyl)-{(S)-2-[3-(2-ethoxy-pyridin-3-yl)-[1,2,4]oxadiazol-5-yl]-azetidin-1-yl}-methanone], the values for the IC50 on human orexin-2 receptor and at human orexin-1 receptor were 3 nM and 68 nM, respectively.

With `CCOc1ncccc1-c1noc([C@@H]2CCN2C(=O)c2ccc(C)cc2-n2nccn2)n1` [Example 32, {(S)-2-[3-(2-Ethoxy-pyridin-3-yl)-[1,2,4]oxadiazol-5-yl]-azetidin-1-yl}-(4-methyl-2-[1,2,3]triazol-2-yl-phenyl)-methanone], the IC50 was found to be 100 nM at human orexin-2 receptor and 819 nM at human orexin-1 receptor.

Turning to `CCOc1ncccc1-c1noc([C@@H]2CCN2C(=O)c2cc(OC)c(F)cc2-n2nccn2)n1` [Example 33, {(S)-2-[3-(2-Ethoxy-pyridin-3-yl)-[1,2,4]oxadiazol-5-yl]-azetidin-1-yl}-(4-fluoro-5-methoxy-2-[1,2,3]triazol-2-yl-phenyl)-methanone], the results for the IC50 on human orexin-2 receptor and at human orexin-1 receptor were 27 nM and 1500 nM, respectively.

On to `CCOc1ncccc1-c1noc([C@@H]2CCN2C(=O)c2cc(OC)c(C)cc2-n2nccn2)n1` [Example 34, {(S)-2-[3-(2-Ethoxy-pyridin-3-yl)-[1,2,4]oxadiazol-5-yl]-azetidin-1-yl}-(5-methoxy-4-methyl-2-[1,2,3]triazol-2-yl-phenyl)-methanone], for which the IC50 came to 5 nM at human orexin-2 receptor and 238 nM at human orexin-1 receptor.

As for `Cc1ccc(-n2nccn2)c(C(=O)N2CC[C@H]2c2nc(-c3cccnc3OC3CCC3)no2)c1` [Example 35, {(S)-2-[3-(2-Cyclobutoxy-pyridin-3-yl)-[1,2,4]oxadiazol-5-yl]-azetidin-1-yl}-(5-methyl-2-[1,2,3]triazol-2-yl-phenyl)-methanone], the IC50 was determined as 71 nM at human orexin-2 receptor and 292 nM on human orexin-1 receptor.

Take `Cc1ccc(-n2nccn2)c(C(=O)N2CC[C@H]2c2nc(-c3ccccc3)no2)c1` [Example 36, (5-Methyl-2-[1,2,3]triazol-2-yl-phenyl)-[(S)-2-(3-phenyl-[1,2,4]oxadiazol-5-yl)-azetidin-1-yl]-methanone]: the half-maximal inhibitory concentration (IC50) was found to be 287 nM on human orexin-2 receptor and 3820 nM on human orexin-1 receptor.

`Cc1nc(C(=O)N2CC[C@H]2c2nc(-c3ccccc3OC(F)(F)F)no2)c(-c2ccccc2F)s1` [Example 37, [5-(2-Fluoro-phenyl)-2-methyl-thiazol-4-yl]-{(S)-2-[3-(2-trifluoromethoxy-phenyl)-[1,2,4]oxadiazol-5-yl]-azetidin-1-yl}-methanone]: the IC50 at human orexin-2 receptor amounted to 59 nM; on human orexin-1 receptor, 458 nM.

As for `Cc1cccc(-c2sc(C)nc2C(=O)N2CC[C@H]2c2nc(-c3ccccc3OC(F)(F)F)no2)c1` [Example 38, (2-Methyl-5-m-tolyl-thiazol-4-yl)-{(S)-2-[3-(2-trifluoromethoxy-phenyl)-[1,2,4]oxadiazol-5-yl]-azetidin-1-yl}-methanone], the IC50 worked out at 119 nM on human orexin-2 receptor and 322 nM at human orexin-1 receptor.

For the compound `Cc1ccc(-c2ccccc2)c(C(=O)N2CC[C@H]2c2nc(-c3ccccc3OC(F)(F)F)no2)c1` [Example 39, (4-Methyl-biphenyl-2-yl)-{(S)-2-[3-(2-trifluoromethoxy-phenyl)-[1,2,4]oxadiazol-5-yl]-azetidin-1-yl}-methanone], the IC50 turned out to be 4 nM on human orexin-2 receptor and 75 nM at human orexin-1 receptor.

As to `Cc1nc(C(=O)N2CC[C@H]2c2nc(-c3ccccc3OC(F)(F)F)no2)c(-c2ccccc2)s1` [Example 40, (2-Methyl-5-phenyl-thiazol-4-yl)-{(S)-2-[3-(2-trifluoromethoxy-phenyl)-[1,2,4]oxadiazol-5-yl]-azetidin-1-yl}-methanone], the IC50 on human orexin-2 receptor came to 41 nM; at human orexin-1 receptor, 221 nM.

Turning to `CN(C)c1nc(C(=O)N2CC[C@H]2c2nc(-c3ccccc3OC(F)(F)F)no2)c(-c2ccccc2)s1` [Example 41, (2-Dimethylamino-5-phenyl-thiazol-4-yl)-{(S)-2-[3-(2-trifluoromethoxy-phenyl)-[1,2,4]oxadiazol-5-yl]-azetidin-1-yl}-methanone], the IC50 at human orexin-2 receptor turned out to be 10 nM; at human orexin-1 receptor, 43 nM.

For the compound `O=C(c1ncsc1-c1ccccc1)N1CC[C@H]1c1nc(-c2ccccc2OC(F)(F)F)no1` [Example 42, (5-Phenyl-thiazol-4-yl)-{(S)-2-[3-(2-trifluoromethoxy-phenyl)-[1,2,4]oxadiazol-5-yl]-azetidin-1-yl}-methanone], the figures for the IC50 on human orexin-2 receptor and on human orexin-1 receptor were 266 nM and 400 nM, respectively.

Turning to `O=C(c1ncsc1-c1cccc(Cl)c1)N1CC[C@H]1c1nc(-c2ccccc2OC(F)(F)F)no1` [Example 43, [5-(3-Chloro-phenyl)-thiazol-4-yl]-{(S)-2-[3-(2-trifluoromethoxy-phenyl)-[1,2,4]oxadiazol-5-yl]-azetidin-1-yl}-methanone], the IC50 worked out at 357 nM on human orexin-2 receptor and 288 nM at human orexin-1 receptor.

As for `Cc1ccc(-c2sc(C)nc2C(=O)N2CC[C@H]2c2nc(-c3ccccc3OC(F)(F)F)no2)cc1` [Example 44, (2-Methyl-5-p-tolyl-thiazol-4-yl)-{(S)-2-[3-(2-trifluoromethoxy-phenyl)-[1,2,4]oxadiazol-5-yl]-azetidin-1-yl}-methanone], the values for the IC50 at human orexin-2 receptor and at human orexin-1 receptor were 73 nM and 282 nM, respectively.

The record behind these values is US9403813B2, “Azetidine amide derivatives as orexin receptor antagonists” (ACTELION PHARMACEUTICALS LTD, priority 2013, dated 2016).
